From patent US4560692A, “4-Piperidino-2-phenylquinolines” (Hoffmann-La Roche Inc., priority 1984, dated 1985)
Like-named read-outs stand apart in the source and are kept apart here.

Tests used:
[1] = molecular target: ^3 H-Diazepam binding, rat brain cortical fragments; assay: ^3 H-Diazepam binding assay; settings: inhibition of ^3 H-Diazepam binding by 50%
Procedure: Rat brain cortical fragments are prepared and the binding procedures performed as described by Mohler and Okada (Life Sciences, 20, 2101, 1977) except that Tris buffer is substituted for Krebs buffer. Drugs are assayed in triplicate. Radioactivity is measured by liquid scintillation counting.

[2] = system: convulsive seizures (Ptz. administered intraveneously); assay: Intravenous antipentylenetetrazole (Ptz.) test, oral compound, protection against convulsions; format: in vivo, Male CF-1 mice; settings: Mus musculus
Procedure: (§1) Utilizing the procedures given below, the compounds of formula I synthesized in the previous examples were assayed for antimetrezol activity and ^3 H-diazepam binding activity. The 24 hour acute toxicity (LD-50, expressed as mg/kg) of each of these compounds was also determined in the standard fashion.
Male CF-1 mice, 45-54 days old, housed in the same facility for one week and food-deprived for about 24 hours are used in this test. […] One hour later, Ptz. is administered intraveneously at 70 mg/kg (convulsant dose 100) and animals are observed 30 seconds for protection against convulsions. If the compound is active orally 8 animals are used per dose level. […] Calculations: The ED50 values and 95% fiducial limits are calculated using a computer program based on the method of D. J. Finney ("Probit Analysis", Cambridge University Press, Cambridge, England, 1971).

[3] = 24 hour acute toxicity (LD-50); settings: in vivo, ">" = not tested above indicated value
Procedure: as §1

[4] = compounds of formula I, read-out: ^3 H-Dz. IC50
[5] = compounds of formula I, oral, 1 h before Ptz. 70 mg/kg i.v., mice, ">" = not tested above indicated value, read-out: Ptz. ED50
[6] = po, 1 h, read-out: ED50 (95% Fiducial Limits)

| Structure (SMILES) | IC50 [1, 4] | ED50 [2, 5] | LD50 at 24 h [3] | ED50 [2, 6] | IC50 ([1]; standard drugs, read-out: IC50) |
| --- | --- | --- | --- | --- | --- |
| NC(=O)C1CCN(c2cc(-c3ccc(F)cc3)nc3ccc(F)cc23)CC1 [1-[6-Fluoro-2-(4-fluorophenyl)-4-quinolinyl]-4-piperidinecarboxamide] | 1 nM | 5 mg/kg | > 1000 mg/kg | – | – |
| CCNC(=O)C1CCN(c2cc(-c3ccc(F)cc3)nc3ccc(F)cc23)CC1 [1-Ethyl-1-[6-fluoro-2-(4-fluorophenyl)-4-quinolinyl]-4-piperidinecarboxamide] | 3 nM | 22 mg/kg | > 1000 mg/kg | – | – |
| Cc1ccc(-c2cc(N3CCC(C(N)=O)CC3)c3ccccc3n2)cc1 [1-[2-(4-methylphenyl)-4-quinolinyl]-4-piperidinecarboxamide] | 1.7 nM | 37 mg/kg | > 1000 mg/kg | – | – |
| Cc1ccc(-c2cc(N3CCC(C(N)=O)CC3)c3cc(C)ccc3n2)cc1 [1-[6-Methyl-2-(4-methylphenyl)-4-quinolinyl]-4-piperidinecarboxamide] | 290 nM | – | – | – | – |
| NC(=O)C1CCN(c2cc(-c3ccc(F)cc3)nc3ccc(Cl)cc23)CC1 [1-[6-Chloro-2-(4-fluorophenyl)-4-quinolinyl]-4-piperidinecarboxamide] | 28 nM | 29 mg/kg | > 1000 mg/kg | – | – |
| NC(=O)C1CCN(c2cc(-c3ccccc3)nc3ccc(Cl)cc23)CC1 [1-[6-Chloro-2-phenyl-4-quinolinyl]-4-piperidinecarboxamide] | 96 nM | 50 mg/kg | > 1000 mg/kg | – | – |
| NC(=O)C1CCN(c2cc(-c3ccc(Br)cc3)nc3ccccc23)CC1 [1-[2-(4-Bromophenyl)-4-quinolinyl]-4-piperidinecarboxamide] | 35 nM | 41 mg/kg | > 1000 mg/kg | – | – |
| NC(=O)C1CCN(c2cc(-c3ccccc3)nc3ccc(F)cc23)CC1 [1-[6-Fluoro-2-phenyl-4-quinolinyl]-4-piperidinecarboxamide] | 3.6 nM | 120 mg/kg | > 1000 mg/kg | – | – |
| CCNC(=O)C1CCN(c2cc(-c3ccccc3)nc3ccc(F)cc23)CC1 [N-Ethyl-1-[6-fluoro-2-phenyl-4-quinolinyl]-4-piperidinecarboxamide] | 2.8 nM | 58 mg/kg | > 1000 mg/kg | – | – |
| CNC(=O)C1CCN(c2cc(-c3ccc(F)cc3)nc3ccc(Cl)cc23)CC1 [1-[6-Chloro-2-(4-fluorophenyl)-4-quinolinyl]-N-methyl-4-piperidinecarboxamide] | 10.5 nM | 37 mg/kg | > 1000 mg/kg | – | – |
| CNC(=O)C1CCN(c2cc(-c3ccc(F)cc3)nc3ccc(F)cc23)CC1 [1-6-Fluoro-2-(4-fluorophenyl)-4-quinolinyl)]-N-methyl-4-piperidinecarboxamide] | 1.8 nM | 13 mg/kg | > 1000 mg/kg | – | – |
| Cc1ccc(-c2cc(N3CCC(C(N)=O)CC3)c3cc(F)ccc3n2)cc1 [1-[6-Fluoro-2-(4-methylphenyl)-4-quinolinyl]-4-piperidinecarboxamide] | 5.4 nM | 88 mg/kg | > 1000 mg/kg | – | – |
| CCN(CC)C(=O)C1CCN(c2cc(-c3ccc(Cl)cc3)nc3ccccc23)CC1 [1-[2-(4-Chlorophenyl)-4-quinolinyl]-N,N-diethyl-4-piperidinecarboxamide] | 500 nM | – | – | – | – |
| Cc1ccc2nc(-c3ccc(F)cc3)cc(N3CCC(C(N)=O)CC3)c2c1 [1-[2-(4-fluorophenyl)-6-methyl-4-quinolinyl]-4-piperidinecarboxamide] | 34 nM | > 100 mg/kg | > 1000 mg/kg | – | – |
| CN1C(=O)CN=C(c2ccccc2)c2cc(Cl)ccc21 [Diazepam, reference compound] | – | – | – | 1 mg/kg | – |
| CCN(CC)CCN1C(=O)CN=C(c2ccccc2F)c2cc(Cl)ccc21 [Flurazepam, reference compound] | – | – | – | – | 15.6 nM |
| NC(=O)C1CCN(c2cc(-c3ccc(Cl)cc3)nc3ccc(F)cc23)CC1 [1-[2-(4-Chlorophenyl)-6-fluoro-4-quinolinyl]-4-piperidinecarboxamide] | 36 nM | 15 mg/kg | > 1000 mg/kg | – | – |
| CNC(=O)C1CCN(c2cc(-c3ccc(Cl)cc3)nc3ccc(F)cc23)CC1 [1-[6-Fluoro-2-(4-chlorophenyl)-4-quinolinyl]-N-methyl-4-piperidinecarboxamide] | 70 nM | > 300 mg/kg | > 1000 mg/kg | – | – |
| CNC1=Nc2ccc(Cl)cc2C(c2ccccc2)=[N+]([O-])C1 [Chlordiazepoxide, reference compound] | – | – | – | 3.9 mg/kg | – |
| CNC(=O)C1CCN(c2cc(-c3ccc(Cl)cc3)nc3ccccc23)CC1 [1-[2-(4-Chlorophenyl)-4-quinolinyl]-N-methyl-4-piperidinecarboxamide] | 19.5 nM | 9 mg/kg | > 1000 mg/kg | – | – |
| Cc1ccc2nc(-c3ccccc3)cc(N3CCC(C(N)=O)CC3)c2c1 [1-[6-Methyl-2-phenyl-4-quinolinyl]-4-piperidinecarboxamide] | 28 nM | 90 mg/kg | > 1000 mg/kg | – | – |
| CCCNC(=O)C1CCN(c2cc(-c3ccccc3)nc3ccc(F)cc23)CC1 [1-[6-Fluoro-2-phenyl-4-quinolinyl]-N-propyl-4-piperidinecarboxamide] | 13 nM | > 100 mg/kg | > 1000 mg/kg | – | – |
| CN(C)C(=O)C1CCN(c2cc(-c3ccc(Cl)cc3)nc3ccccc23)CC1 [1-[2-(4-Chlorophenyl)-4-quinolinyl]-N,N-dimethyl-4-piperidinecarboxamide] | 80 nM | 24 mg/kg | > 1000 mg/kg | – | – |
| Cc1ccc2nc(-c3ccc(Cl)cc3)cc(N3CCC(C(N)=O)CC3)c2c1 [1-[2-(4-Chlorophenyl)-6-methyl-4-quinolinyl]-4-piperidinecarboxamide] | 460 nM | – | – | – | – |
| NC(=O)C1CCN(c2cc(-c3ccc(Cl)cc3)nc3ccccc23)CC1 [1-[2-(4-chlorophenyl)-4-quinolinyl]-4-piperidinecarboxamide] | 29 nM | 24 mg/kg | > 1000 mg/kg | – | – |
| Cc1ccc(-c2cc(N3CCC(C(N)=O)CC3)c3cc(Cl)ccc3n2)cc1 [1-[6-Chloro-2-(4-methylphenyl)-4-quinolinyl]-4-piperidinecarboxamide] | 60 nM | > 100 mg/kg | > 1000 mg/kg | – | – |
| NC(=O)C1CCN(c2cc(-c3ccc(F)cc3)nc3ccccc23)CC1 [1-[2-(4-Fluorophenyl)-4-quinolinyl]-4-piperidinecarboxamide] | 1.1 nM | > 100 mg/kg | > 1000 mg/kg | – | – |
| CCNC(=O)C1CCN(c2cc(-c3ccc(Cl)cc3)nc3ccccc23)CC1 [1-[2-(4-chlorophenyl)-4-quinolinyl]-N-ethyl-4-piperidinecarboxamide] | 9 nM | 26 mg/kg | > 1000 mg/kg | – | – |
| CCC1(c2ccccc2)C(=O)NC(=O)NC1=O [Sodium Phenobarbital, reference compound] | – | – | – | 19 mg/kg | – |
| NC(=O)C1CCN(c2cc(-c3ccc(Cl)cc3)nc3ccc(Cl)cc23)CC1 [1-[6-chloro-2-(4-chlorophenyl)-4-quinolinyl]-4-piperidinecarboxamide] | 205 nM | – | – | – | – |
